Assay results as given in patent US20250222011A1, “DRUG TARGET FOR INHIBITING TUMOR, USE, AND ORAL DRUG” (CHI BIOTECH CO., LTD., priority 2024, published 2025).

Tests used:
[1] = tested on: ovarian cancer cells; test: Apoptosis of ovarian cancer cells (other experiments); type: cell-based
[2] = tested on: cancer cells; test: LDH assay of cytotoxicity; type: cell-based; settings: 0.5 mg/mL
Source text: (§1) In addition, an LDH assay was adopted to determine the cytotoxicity of ATCA and detect the cytotoxicity of the drug.

[3] = tested on: normal cells (HBE); test: LDH assay of cytotoxicity; type: cell-based; settings: 0.5 mg/mL
Source text: as §1

[4] = tested on: polyribosomes; test: Polysome profiling (cell translation initiation efficiency); type: cell-based; settings: 1 mg/mL, FIG. 5
Protocol: Polysome profiling: cells were plated in a 75 T flask with 2 million cells per flask and allowed to adhere for 24 h, and the ACTA was added to the experimental group to make a concentration of the working solution at 1 mg/mL. The control group was replaced with a new medium. Samples were collected after 24 h and 48 h of ATCA treatment. The medium was aspirated, the samples were washed twice with PBS, and 2 mL of Lysis Buffer (RB Buffer, 1% Ttiton X-100, and 10 μg/μL cycloheximide) was added to allow lysis for 30 min on ice, and a resulting lysate was pipetted into an RNase-free EP tube. […] After centrifugation for 4 h and 10 min at 4° C. and 25,400 rpm, high-performance liquid chromatography (HPLC) was conducted to allow relative quantitative analysis of polyribosomes, monoribosomes, and large and small subunits of ribosomes.

[5] = tested on: liver cancer cells; test: Proliferation of liver cancer cells (other experiments); type: cell-based
[6] = tested on: lung adenocarcinoma cells H1299; test: Apoptosis by Annexin V and propidium iodide staining, flow cytometry; type: cell-based; settings: 0.5 mg/mL ATCA, P<0.05, n=4
Source text: (§2) In the experiment of ATCA inducing apoptosis in lung cancer cells, Annexin V and propidium iodide were used to stain the cancer cells and then detected by flow cytometry.

[7] = tested on: lung adenocarcinoma cells A549; test: as above; type: cell-based; settings: 0.5 mg/mL ATCA, P<0.05, n=4
Source text: as §2

[8] = tested on: phosphorylated EIF2S1; test: Western blotting detection of EIF2A phosphorylation; type: cell-based; settings: 1 mM of ATCA for 48 h, FIG. 3
Protocol: Western Blotting method: the sample and molecular weight standard of pre-stained protein were loaded onto an SDS-PAGE gel (10 cm×10 cm) to allow electrophoresis at 100 V for 40 min. After treating for 1 h at 100 V, 230 mA, the protein in SDS-PAGE was transferred to a nitrocellulose membrane. After transfer, the nitrocellulose membrane was washed with 25 mL of TBS for 5 min at room temperature. The nitrocellulose membrane was placed in 25 mL of blocking buffer (TBST, 5% skim milk) and incubated at room temperature for 1 h. The membrane was washed three times with 15 mL TBST, 5 min each time. The membrane and phosphorylated EIF2S1 primary antibody (diluted at 1:1500) were placed in 10 mL of a primary antibody dilution buffer and incubated overnight at 4° C. with gentle shaking at certain intervals. The membrane was washed three times with 15 mL TBST, 5 min each time. A rabbit secondary antibody was prepared with 5% skim milk at a ratio of 1:2000 and incubated at room temperature for 1.5 h. The membrane was washed three times with 15 mL TBST, 5 min each time. The membrane was incubated with 10 mL of LumiGLO® (0.5 mL 20× LumiGLO®, 0.5 mL 20× peroxide, and 9.0 mL purified water) at room temperature for 1 min with gentle agitation at certain intervals. The excess developer on the membrane was drained (no drying), wrapped in plastic film, and then developed with a BIO-RAD developer.

[9] = tested on: HER2; test: Western blotting of HER2 expression after ATCA treatment; type: cell-based; settings: FIG. 4
[10] = tested on: normal lung cells HBE; test: Apoptosis by Annexin V and propidium iodide staining, flow cytometry; type: cell-based; settings: 0.5 mg/mL ATCA
[11] = tested on: H1299 cells; test: Transcriptome sequencing with KEGG pathway enrichment of down-regulated genes; type: cell-based, human; settings: 1 mg/mL ATCA, 48 h, FIG. 7
Protocol: 1 mg/mL ATCA was added to the culture medium of a T75 cell culture flask filled with three million of H1299 cells as a treatment group, and an equal volume of PBS was added as a control group. After ATCA treatment for 48 h, the cultured supernatant was discarded, and the cells were placed on ice, washed twice with pre-cooled PBS. The PBS was discarded, 5 mL of pre-cooled Trizol (total RNA extraction reagent) was added, mixed by shaking thoroughly. […]

O=C(O)C1=CC(=C(c2ccc(O)c(C(=O)O)c2)c2ccc(O)c(C(=O)O)c2)C=CC1=O [ATCA, aurintricarboxylic acid]
apoptosis of ovarian cancer cells [1]: induce apoptosis | cytotoxicity to cancer cells (LDH) [2]: did not cause obvious cytotoxicity | cytotoxicity to normal cells (LDH) [3]: did not cause obvious cytotoxicity | polysome distribution curve ([4]; 24 h after adding the drug): did not change much | polyribosome fraction ([4]; 48 h after adding the drug): significantly reduced | translation elongation [4]: did not affect translation elongation | proliferation of liver cancer cells [5]: inhibit the proliferation | apoptosis of H1299 cells [6]: significant apoptosis | apoptosis of A549 cells [7]: significant apoptosis | EIF2S1 phosphorylation abundance [8]: did not affect its phosphorylation abundance | HER2 expression [9]: downregulation | apoptosis of normal lung cells HBE [10]: did not show apoptosis | further significantly down-regulated pathways (KEGG enrichment) [11]: platinum drug-resistance, TGF-beta signaling pathway, signaling pathways regulating pluripotency of stem cells, and FoxO signaling pathway | most significantly down-regulated pathway (KEGG enrichment) [11]: cell cycle
